Legend:
RON (human) = RON (human) (Homo sapiens, UniProt Q04912); experiment: RON (human) AlphaScreen kinase assay, Km of ATP; assay type: biochemical; conditions: AlphaScreen, Km of ATP; read-out: RON biochemical IC50
Outline: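 Detection used PT66 AlphaScreen beads added in Tris pH 7.5/NaCl/EDTA/BSA buffer, read after 1 h incubation. Vehicle-only DMSO wells served as controls.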

MET (human) = MET (human) (Homo sapiens, UniProt P08581); experiment: MET (human) AlphaScreen kinase assay, Km of ATP; assay type: biochemical; conditions: AlphaScreen, Km of ATP; read-out: Met biochemical IC50
Outline: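 Human MET at lot-optimised concentration in 50 mM Tris pH 7.4 buffer with 1 mM DTT, compound at 1% DMSO final; enzyme starts the reaction, 60 min at RT.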

Chain of MET (human) (P08581 25-1390): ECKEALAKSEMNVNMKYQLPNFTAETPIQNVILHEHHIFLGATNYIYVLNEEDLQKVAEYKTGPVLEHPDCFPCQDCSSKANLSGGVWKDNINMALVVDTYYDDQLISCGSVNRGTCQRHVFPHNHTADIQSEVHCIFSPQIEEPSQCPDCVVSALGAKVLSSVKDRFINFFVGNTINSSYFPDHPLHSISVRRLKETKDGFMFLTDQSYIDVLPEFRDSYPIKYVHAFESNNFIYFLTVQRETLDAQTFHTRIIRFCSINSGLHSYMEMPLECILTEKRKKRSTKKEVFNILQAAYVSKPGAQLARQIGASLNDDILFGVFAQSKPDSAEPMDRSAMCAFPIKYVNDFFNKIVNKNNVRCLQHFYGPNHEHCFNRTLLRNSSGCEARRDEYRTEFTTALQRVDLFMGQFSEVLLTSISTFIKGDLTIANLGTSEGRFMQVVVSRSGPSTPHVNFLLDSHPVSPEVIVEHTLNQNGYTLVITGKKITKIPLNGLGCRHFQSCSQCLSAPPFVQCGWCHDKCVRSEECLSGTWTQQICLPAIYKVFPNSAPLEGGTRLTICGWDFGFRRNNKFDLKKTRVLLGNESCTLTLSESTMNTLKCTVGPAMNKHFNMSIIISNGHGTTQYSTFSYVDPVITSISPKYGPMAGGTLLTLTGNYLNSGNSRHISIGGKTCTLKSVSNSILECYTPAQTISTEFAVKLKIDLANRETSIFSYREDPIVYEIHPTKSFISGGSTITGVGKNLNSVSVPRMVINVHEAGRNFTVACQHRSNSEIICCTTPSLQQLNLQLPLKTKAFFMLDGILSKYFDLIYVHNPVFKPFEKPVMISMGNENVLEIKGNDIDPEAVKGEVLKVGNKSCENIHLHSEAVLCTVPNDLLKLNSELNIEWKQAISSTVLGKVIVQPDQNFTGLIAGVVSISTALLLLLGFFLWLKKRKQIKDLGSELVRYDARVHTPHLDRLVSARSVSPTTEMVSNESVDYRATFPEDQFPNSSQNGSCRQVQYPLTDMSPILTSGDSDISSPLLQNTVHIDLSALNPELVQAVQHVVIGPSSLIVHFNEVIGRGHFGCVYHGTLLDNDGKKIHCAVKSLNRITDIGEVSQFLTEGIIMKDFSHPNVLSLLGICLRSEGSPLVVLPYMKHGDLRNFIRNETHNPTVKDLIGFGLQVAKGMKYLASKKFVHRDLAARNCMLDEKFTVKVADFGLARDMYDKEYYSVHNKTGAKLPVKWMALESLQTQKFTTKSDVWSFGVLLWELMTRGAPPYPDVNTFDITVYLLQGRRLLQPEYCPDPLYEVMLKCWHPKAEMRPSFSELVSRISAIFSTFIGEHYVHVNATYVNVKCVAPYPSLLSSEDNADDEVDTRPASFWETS
Chain of RON (human) (Q04912 25-1400): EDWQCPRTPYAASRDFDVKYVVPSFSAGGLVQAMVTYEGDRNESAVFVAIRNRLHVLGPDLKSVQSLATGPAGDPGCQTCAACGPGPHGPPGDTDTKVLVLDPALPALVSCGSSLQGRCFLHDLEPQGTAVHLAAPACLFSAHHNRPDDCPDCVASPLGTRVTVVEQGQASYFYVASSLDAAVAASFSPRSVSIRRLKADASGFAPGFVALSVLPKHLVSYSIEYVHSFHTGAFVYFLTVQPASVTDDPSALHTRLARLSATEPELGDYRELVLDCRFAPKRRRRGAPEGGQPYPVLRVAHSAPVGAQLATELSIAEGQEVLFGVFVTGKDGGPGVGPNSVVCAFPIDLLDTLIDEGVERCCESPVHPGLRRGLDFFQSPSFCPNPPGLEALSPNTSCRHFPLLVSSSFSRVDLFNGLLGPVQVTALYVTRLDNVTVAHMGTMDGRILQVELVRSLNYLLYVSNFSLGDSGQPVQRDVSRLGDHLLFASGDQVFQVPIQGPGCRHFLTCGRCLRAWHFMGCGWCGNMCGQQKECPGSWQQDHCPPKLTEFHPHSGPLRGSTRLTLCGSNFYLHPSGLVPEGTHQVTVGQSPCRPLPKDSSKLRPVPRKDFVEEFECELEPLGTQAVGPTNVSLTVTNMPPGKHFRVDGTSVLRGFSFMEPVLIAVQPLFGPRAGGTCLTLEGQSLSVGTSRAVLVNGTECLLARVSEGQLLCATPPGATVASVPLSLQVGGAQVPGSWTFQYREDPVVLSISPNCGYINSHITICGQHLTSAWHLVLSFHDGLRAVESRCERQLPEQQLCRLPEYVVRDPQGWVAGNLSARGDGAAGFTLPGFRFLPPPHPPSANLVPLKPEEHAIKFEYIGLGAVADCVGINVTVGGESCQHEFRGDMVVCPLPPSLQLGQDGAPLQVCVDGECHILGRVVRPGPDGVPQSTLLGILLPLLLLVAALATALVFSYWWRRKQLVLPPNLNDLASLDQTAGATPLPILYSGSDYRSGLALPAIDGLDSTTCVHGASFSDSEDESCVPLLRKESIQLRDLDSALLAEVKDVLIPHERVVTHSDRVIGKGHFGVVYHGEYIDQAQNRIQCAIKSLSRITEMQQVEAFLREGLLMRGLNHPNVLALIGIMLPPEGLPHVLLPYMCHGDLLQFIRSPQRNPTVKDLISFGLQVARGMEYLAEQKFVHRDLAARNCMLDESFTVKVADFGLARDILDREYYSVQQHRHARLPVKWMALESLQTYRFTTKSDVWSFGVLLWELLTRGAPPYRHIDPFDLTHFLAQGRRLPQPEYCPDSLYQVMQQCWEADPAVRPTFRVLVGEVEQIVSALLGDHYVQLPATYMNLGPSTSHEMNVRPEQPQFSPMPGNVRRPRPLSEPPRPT

| SMILES | IC50 (RON (human)) [µM] | IC50 (MET (human)) [nM] |
| --- | --- | --- |
| C[C@@H]1CN(C(=O)N2CC=C(c3coc4c(O[C@H](C)c5c(Cl)ccc(F)c5Cl)c(N)ncc34)CC2)C[C@H](C)O1 [Example 30, (4-{6-Amino-7-[(R)-1-(2,6-dichloro-3-fluorophenyl)-ethoxy]-furo[3,2-c]pyridin-3-yl}-3,6-dihydro-2H-pyridin-1-yl)-((2R,6S)-2,6-dimethylmorpholin-4-yl)-methanone] | 0.5 to 5 | 500 to 5000 |
| CCS(=O)(=O)N1CC=C(c2coc3c(O[C@H](C)c4c(Cl)ccc(F)c4Cl)c(N)ncc23)CC1 [Example 47, 7-[(R)-1-(2,6-Dichloro-3-fluorophenyl)-ethoxy]-3-(1-ethanesulfonyl-1,2,3,6-tetrahydropyridin-4-yl)-furo[3,2-c]pyridin-6-ylamine] | 0.5 to 5 | 500 to 5000 |
| C[C@@H](Oc1c(N)ncc2c(-c3ccc4cc[nH]c4c3)coc12)c1c(Cl)ccc(F)c1Cl [Example 129, 7-[(R)-(2,6-Dichloro-3-fluorophenyl)ethoxy]-3-(1H-indol-6-yl)furo[3,2-c]pyridin-6-ylamine] | 0.5 to 5 | 500 to 5000 |
| C[C@@H](Oc1c(N)ncc2c(-c3cccc(CN(C)C)c3)coc12)c1c(Cl)ccc(F)c1Cl [Example 96, 7-[(R)-1-(2,6-Dichloro-3-fluorophenyl)ethoxy]-3-(3-dimethyl-aminomethylphenyl)furo[3,2-c]pyridin-6-ylamine] | 0.5 to 5 | < 500 |
| C[C@@H](Oc1c(N)ncc2c(C3=CCN(C(=O)N4CC5CC4CO5)CC3)coc12)c1c(Cl)ccc(F)c1Cl (stereo partly drawn) [Example 223, (4-{6-Amino-7-[(R)-1-(2,6-dichloro-3-fluorophenyl)ethoxy]-furo[3,2-c]pyridin-3-yl}-3,6-dihydro-2H-pyridin-1-yl)-(2-oxa-5-azabicyclo[2.2.1]hept-5-yl)methanone] | 0.5 to 5 | 500 to 5000 |
| C[C@@H](Oc1c(N)ncc2c(C3=CCS(=O)(=O)CC3)coc12)c1c(Cl)ccc(F)c1Cl [Example 140, 7-[(1R)-1-(2,6-Dichloro-3-fluorophenyl)ethoxy]-3-(1,1-dioxido-3,6-dihydro-2H-thiopyran-4-yl)furo[3,2-c]pyridin-6-amine] | 0.5 to 5 | < 500 |
| C[C@@H](Oc1c(N)ncc2c(-c3ccc(C(=O)N4CCN(CCO)CC4)cc3)coc12)c1c(Cl)ccc(F)c1Cl [Example 99, (4-{6-Amino-7-[(R)-1-(2,6-dichloro-3-fluorophenyl)ethoxy]-furo[3,2-c]pyridin-3-yl}phenyl)-[4-(2-hydroxyethyl)piperazin-1-yl]methanone] | < 0.5 | < 500 |
| C[C@@H](Oc1c(N)ncc2c(-c3ccc(C(=O)N4CCCC4)cc3)coc12)c1c(Cl)ccc(F)c1Cl [Example 84, (4-{6-Amino-7-[(R)-1-(2,6-dichloro-3-fluorophenyl)ethoxy]-furo[3,2-c]pyridin-3-yl}phenyl)pyrrolidin-1-ylmethanone] | 0.5 to 5 | < 500 |
| CC(Oc1c(N)ncc2c(-c3cnn(C4CCNCC4)c3)coc12)c1c(Cl)c(F)cc(OCCCN(C)C)c1Cl (centres unmarked) [Example 156, 7-(1-{2,6-Dichloro-3-[3-(dimethylamino)propoxy]-5-fluorophenyl}ethoxy)-3-[1-(piperidin-4-yl)-1H-pyrazol-4-yl]furo[3,2-c]pyridin-6-amine] | < 0.5 | < 500 |
| CC(C)C(=O)N1CC=C(c2coc3c(O[C@H](C)c4c(Cl)ccc(F)c4Cl)c(N)ncc23)CC1 [Example 15, 1-(4-{6-Amino-7-[(R)-1-(2,6-dichloro-3-fluorophenyl)-ethoxy]-furo[3,2-c]pyridin-3-yl}-3,6-dihydro-2H-pyridin-1-yl)-2-methylpropan-1-one] | 0.5 to 5 | 500 to 5000 |
| C[C@@H](Oc1c(N)ncc2c(C3=CCN(CC(N)=O)CC3)coc12)c1c(Cl)ccc(F)c1Cl [Example 202, 2-(4-{6-Amino-7-[(R)-1-(2,6-dichloro-3-fluorophenyl)ethoxy]-furo[3,2-c]pyridin-3-yl}-3,6-dihydro-2H-pyridin-1-yl)-acetamide] | 0.5 to 5 | < 500 |
| C[C@@H](Oc1c(N)ncc2c(C3=CCN(C(=O)Nc4ccccc4Cl)CC3)coc12)c1c(Cl)ccc(F)c1Cl [Example 152, 4-{6-Amino-7-[(1R)-1-(2,6-dichloro-3-fluorophenyl)ethoxy]furo[3,2-c]pyridin-3-yl}-N-(2-chlorophenyl)-3,6-dihydropyridine-1(2H)-carboxamide] | 0.5 to 5 | 500 to 5000 |
| C[C@@H](Oc1c(N)ncc2c(-c3ccc(CN4CCOCC4)cc3)coc12)c1c(Cl)ccc(F)c1Cl [Example 85, 7-[(R)-1-(2,6-Dichloro-3-fluorophenyl)ethoxy]-3-(4-morpholin-4-ylmethylphenyl)furo[3,2-c]pyridin-6-ylamine] | 0.5 to 5 | 500 to 5000 |
| C[C@@H]1CN(C(=O)N2CC=C(c3coc4c(O[C@H](C)c5c(Cl)ccc(F)c5Cl)c(N)ncc34)CC2)C[C@H](C)N1 (relative stereo) [Example 224, (4-{6-Amino-7-[(R)-1-(2,6-dichloro-3-fluorophenyl)ethoxy]-furo[3,2-c]pyridin-3-yl}-3,6-dihydro-2H-pyridin-1-yl)-((3R*,5S*)-3,5-dimethylpiperazin-1-yl)methanone] | < 0.5 | < 500 |
| C[C@@H](Oc1c(N)ncc2c(C(=O)NC3CCN(C)CC3)coc12)c1c(Cl)ccc(F)c1Cl [Example 186, 6-Amino-7-[(R)-1-(2,6-dichloro-3-fluorophenyl)ethoxy]furo[3,2-c]pyridine-3-carboxylic acid (1-methylpiperidin-4-yl)amide] | 0.5 to 5 | < 500 |
| C[C@@H](Oc1c(N)ncc2c(-c3cccc(C(=O)NCCN4CCCC4)c3)coc12)c1c(Cl)ccc(F)c1Cl [Example 102, 3-{6-Amino-7-[(R)-1-(2,6-dichloro-3-fluorophenyl)ethoxy]-furo[3,2-c]pyridin-3-yl}-N-(2-pyrrolidin-1-ylethyl)benzamide] | 0.5 to 5 | < 500 |
| C[C@@H](Oc1c(N)ncc2c(-c3ccc(C(N)=O)cc3)coc12)c1c(Cl)ccc(F)c1Cl [Example 63, 4-{6-Amino-7-[(R)-1-(2,6-dichloro-3-fluorophenyl)ethoxy]-furo[3,2-c]pyridin-3-yl}benzamide] | 0.5 to 5 | 500 to 5000 |

Further lines, results first:

| IC50 (RON (human)) [µM] | IC50 (MET (human)) [nM] | SMILES |
| --- | --- | --- |
| 0.5 to 5 | 500 to 5000 | COC(=O)N1CCC(n2cc(-c3coc4c(O[C@H](C)c5c(Cl)ccc(F)c5Cl)c(N)ncc34)cn2)CC1 [Example 274, Methyl 4-(4-{6-Amino-7-[(1R)-1-(2,6-dichloro-3-fluorophenyl)ethoxy]furo[3,2-c]pyridin-3-yl}-1H-pyrazol-1-yl)piperidine-1-carboxylate] |
| 5 to 20 | 500 to 5000 | C[C@@H](Oc1c(N)ncc2c(-c3cncc(C(=O)NC(C)(C)C)c3)coc12)c1c(Cl)ccc(F)c1Cl [Example 280, 5-{6-Amino-7-[(R)-1-(2,6-dichloro-3-fluorophenyl)ethoxy]furo[3,2-c]pyridin-3-yl}-N-tert-butylnicotinamide] |
| < 0.5 | < 500 | COc1ccccc1CC(C)Oc1c(N)ncc2c(-c3cnn(C4CCNCC4)c3)coc12 (centres unmarked) [Example 406, 7-[2-(2-Methoxyphenyl)-1-methylethoxy]-3-(1-piperidin-4-yl-1H-pyrazol-4-yl)furo[3,2-c]pyridin-6-ylamine] |
| 0.5 to 5 | < 500 | CC(Oc1c(N)ncc2c(-c3cnn(C4CCNCC4)c3)coc12)c1cccc(C#N)c1 (centres unmarked) [Example 393, 3-{1-[6-Amino-3-(1-piperidin-4-yl-1H-pyrazol-4-yl)furo[3,2-c]pyridin-7-yloxy]ethyl}benzonitrile] |
| 0.5 to 5 | < 500 | C[C@@H](Oc1c(N)ncc2c(-c3ccc(C(=O)NCC(C)(C)CN(C)C)cc3)coc12)c1c(Cl)ccc(F)c1Cl [Example 298, 4-{6-Amino-7-[(R)-1-(2,6-dichloro-3-fluorophenyl)ethoxy]furo[3,2-c]pyridin-3-yl}-N-(3-dimethylamino-2,2-dimethylpropyl)benzamide] |
| 0.5 to 5 | < 500 | CC(Oc1c(N)ncc2c(-c3cnn(C4CCNCC4)c3)coc12)c1c(F)cc(Cl)cc1Cl (centres unmarked) [Example 372, 7-[1-(2,4-Dichloro-6-fluorophenyl)ethoxy]-3-(1-piperidin-4-yl-1H-pyrazol-4-yl)furo[3,2-c]pyridin-6-ylamine] |
| 5 to 20 | 500 to 5000 | CNC(=O)c1csc(-c2coc3c(O[C@H](C)c4c(Cl)ccc(F)c4Cl)c(N)ncc23)c1 [Example 327, 5-{6-Amino-7-[(R)-1-(2,6-dichloro-3-fluorophenyl)ethoxy]furo[3,2-c]pyridin-3-yl}thiophene-3-carboxylic acid methylamide] |
| 0.5 to 5 | < 500 | CC(Oc1c(N)ncc2c(-c3cnn(C4CCNCC4)c3)coc12)c1ccc(C(F)(F)F)cc1 (centres unmarked) [Example 348, 3-(1-Piperidin-4-yl-1H-pyrazol-4-yl)-7-[1-(4-trifluoromethyl-phenyl)ethoxy]furo[3,2-c]pyridin-6-ylamine] |
| 5 to 20 | 5000 to 20000 | C[C@@H](Oc1c(N)ncc2c(-c3cc(C(=O)O)cs3)coc12)c1c(Cl)ccc(F)c1Cl [Example 325, 5-{6-Amino-7-[(R)-1-(2,6-dichloro-3-fluorophenyl)ethoxy]furo[3,2-c]pyridin-3-yl}thiophene-3-carboxylic acid] |
| 0.5 to 5 | < 500 | C[C@@H](Cc1ccccc1)Oc1c(N)ncc2c(-c3cnn(C4CCNCC4)c3)coc12 [Example 414, 7-((S)-1-Methyl-2-phenylethoxy)-3-(1-piperidin-4-yl-1H-pyrazol-4-yl)furo[3,2-c]pyridin-6-ylamine] |
| 0.5 to 5 | 500 to 5000 | COCCNC(=O)c1ccc(-c2coc3c(O[C@H](C)c4c(Cl)ccc(F)c4Cl)c(N)ncc23)cc1 [Example 285, 4-{6-Amino-7-[(R)-1-(2,6-dichloro-3-fluorophenyl)ethoxy]furo[3,2-c]pyridin-3-yl}-N-(2-methoxyethyl)benzamide] |
